The results in this text go back to patent US12486267B2, “Imidazo[1,2-A]pyridine and [1,2,4]triazolo[1,5-A]pyridine derivatives as TLR9 inhibitors for the treatment of fibrosis” (BRISTOL-MYERS SQUIBB COMPANY, priority 2020, dated 2025).

SMILES strings stand for the structures. Bounds are passed on as bounds.

Common to all, as to format: cell-based
One experiment addresses T1, human TLR9 (Homo sapiens, UniProt Q9NR96).
T1 sequence (Q9NR96 26-1032): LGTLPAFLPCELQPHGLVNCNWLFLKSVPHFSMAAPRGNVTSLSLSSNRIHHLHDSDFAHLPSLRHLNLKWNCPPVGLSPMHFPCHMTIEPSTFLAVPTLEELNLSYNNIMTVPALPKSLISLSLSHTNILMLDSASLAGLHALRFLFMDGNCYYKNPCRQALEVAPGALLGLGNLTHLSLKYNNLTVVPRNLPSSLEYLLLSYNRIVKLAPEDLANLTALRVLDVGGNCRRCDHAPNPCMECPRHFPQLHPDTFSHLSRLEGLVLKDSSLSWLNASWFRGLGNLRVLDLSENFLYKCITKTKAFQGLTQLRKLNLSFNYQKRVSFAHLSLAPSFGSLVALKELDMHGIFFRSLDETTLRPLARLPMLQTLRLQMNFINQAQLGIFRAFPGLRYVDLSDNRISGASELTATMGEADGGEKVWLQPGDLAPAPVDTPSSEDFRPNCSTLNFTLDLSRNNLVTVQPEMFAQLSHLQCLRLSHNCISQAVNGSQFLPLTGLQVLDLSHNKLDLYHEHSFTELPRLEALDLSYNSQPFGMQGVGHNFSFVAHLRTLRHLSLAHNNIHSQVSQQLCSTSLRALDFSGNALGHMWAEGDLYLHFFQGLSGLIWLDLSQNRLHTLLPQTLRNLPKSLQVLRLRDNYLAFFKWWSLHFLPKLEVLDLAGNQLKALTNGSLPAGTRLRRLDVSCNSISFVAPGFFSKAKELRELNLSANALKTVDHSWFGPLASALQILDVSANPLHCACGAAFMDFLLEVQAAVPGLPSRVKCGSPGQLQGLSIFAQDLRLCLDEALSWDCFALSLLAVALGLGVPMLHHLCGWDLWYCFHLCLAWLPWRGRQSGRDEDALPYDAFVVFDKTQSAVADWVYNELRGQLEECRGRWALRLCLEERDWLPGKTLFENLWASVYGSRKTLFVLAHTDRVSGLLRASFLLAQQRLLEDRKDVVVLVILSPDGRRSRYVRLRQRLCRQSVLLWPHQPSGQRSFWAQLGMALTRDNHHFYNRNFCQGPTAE
The experiment in a line: TLR9 inhibition reporter assay (HEK-Blue cells, SEAP reporter). Conditions: HEK-Blue cells overexpressing human TLR9; stimulated with ODN2006 5 nM; 22 hour incubation; SEAP readout. The method, then:
(§1) TLR7/8/9 Inhibition Reporter Assays
(§2) HEK-Blue™-cells (Invivogen) overexpressing human TLR7, TLR8 or TLR9 receptors were used for screening inhibitors of these receptors using an inducible SEAP (secreted embryonic alkaline phosphatase) reporter gene under the control of the […] minimal promoter fused to five NF-κB and AP-1-binding sites. Briefly, cells are seeded into Greiner 384 well plates (15000 cells per well for TLR7, 20,000 for TLR8 and 25,000 for TLR9) and then treated with test compounds in DMSO to yield a final dose response concentration range of 0.05 nM-50 μM. After a 30 minute compound pre-treatment at room temperature, the cells are then stimulated with a TLR7 ligand (gardiquimod at a final concentration of 7.5 μM), TLR8 ligand (R848 at a final concentration of 15.9 μM) or TLR9 ligand (ODN2006 at a final concentration of 5 nM) to activate NF-κB and AP-1 which induce the production of SEAP. After a 22 hour incubation at 37° C., 5% CO2, SEAP levels are determined with the addition of HEK-Blue™ Detection reagent (Invivogen), a cell culture medium that allows for detection of SEAP, according to manufacturer's specifications. The percent inhibition is determined as the % reduction in the HEK-Blue signal present in wells treated with agonist plus DMSO alone compared to wells treated with a known inhibitor.

A further experiment deals with T2, human TLR8 (Homo sapiens, UniProt Q9NR97).
T2 sequence (Q9NR97 27-1041): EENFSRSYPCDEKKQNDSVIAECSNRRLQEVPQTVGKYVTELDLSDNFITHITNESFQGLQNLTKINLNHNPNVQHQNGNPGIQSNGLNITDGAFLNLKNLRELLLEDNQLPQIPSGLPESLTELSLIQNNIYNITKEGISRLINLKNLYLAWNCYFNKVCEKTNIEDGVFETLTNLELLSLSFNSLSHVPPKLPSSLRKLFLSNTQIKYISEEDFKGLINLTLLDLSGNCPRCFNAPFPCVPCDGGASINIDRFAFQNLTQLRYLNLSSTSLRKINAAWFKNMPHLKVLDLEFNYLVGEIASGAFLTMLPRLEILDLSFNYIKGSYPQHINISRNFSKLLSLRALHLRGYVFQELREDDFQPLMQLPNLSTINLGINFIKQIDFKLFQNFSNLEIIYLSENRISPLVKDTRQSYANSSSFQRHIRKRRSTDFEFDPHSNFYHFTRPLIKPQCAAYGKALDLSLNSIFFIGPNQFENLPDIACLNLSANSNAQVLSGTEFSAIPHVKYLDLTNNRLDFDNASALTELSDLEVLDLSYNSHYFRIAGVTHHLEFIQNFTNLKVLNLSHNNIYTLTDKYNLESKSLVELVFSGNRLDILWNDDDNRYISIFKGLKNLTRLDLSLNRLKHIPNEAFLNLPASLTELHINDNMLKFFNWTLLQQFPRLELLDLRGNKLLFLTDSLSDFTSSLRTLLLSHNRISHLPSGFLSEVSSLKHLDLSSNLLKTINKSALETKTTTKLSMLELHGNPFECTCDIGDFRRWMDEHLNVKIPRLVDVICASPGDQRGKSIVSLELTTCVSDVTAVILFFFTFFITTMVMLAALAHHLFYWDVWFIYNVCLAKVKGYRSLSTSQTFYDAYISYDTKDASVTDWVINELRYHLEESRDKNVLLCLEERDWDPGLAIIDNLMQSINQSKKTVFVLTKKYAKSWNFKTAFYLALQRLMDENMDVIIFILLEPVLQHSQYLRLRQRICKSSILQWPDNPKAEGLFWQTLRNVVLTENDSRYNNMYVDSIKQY
The experiment is described as follows: TLR8 inhibition reporter assay (HEK-Blue cells, SEAP reporter). Conditions: HEK-Blue cells overexpressing human TLR8; stimulated with R848 15.9 μM; 22 hour incubation; SEAP readout. The method, then: as §1, §2
On the technique in general: A reporter such as luciferase makes a cellular process visible.

The next experiment has as its target T3, human TLR7 (Homo sapiens, UniProt Q9NYK1).
T3 sequence (Q9NYK1 27-1049): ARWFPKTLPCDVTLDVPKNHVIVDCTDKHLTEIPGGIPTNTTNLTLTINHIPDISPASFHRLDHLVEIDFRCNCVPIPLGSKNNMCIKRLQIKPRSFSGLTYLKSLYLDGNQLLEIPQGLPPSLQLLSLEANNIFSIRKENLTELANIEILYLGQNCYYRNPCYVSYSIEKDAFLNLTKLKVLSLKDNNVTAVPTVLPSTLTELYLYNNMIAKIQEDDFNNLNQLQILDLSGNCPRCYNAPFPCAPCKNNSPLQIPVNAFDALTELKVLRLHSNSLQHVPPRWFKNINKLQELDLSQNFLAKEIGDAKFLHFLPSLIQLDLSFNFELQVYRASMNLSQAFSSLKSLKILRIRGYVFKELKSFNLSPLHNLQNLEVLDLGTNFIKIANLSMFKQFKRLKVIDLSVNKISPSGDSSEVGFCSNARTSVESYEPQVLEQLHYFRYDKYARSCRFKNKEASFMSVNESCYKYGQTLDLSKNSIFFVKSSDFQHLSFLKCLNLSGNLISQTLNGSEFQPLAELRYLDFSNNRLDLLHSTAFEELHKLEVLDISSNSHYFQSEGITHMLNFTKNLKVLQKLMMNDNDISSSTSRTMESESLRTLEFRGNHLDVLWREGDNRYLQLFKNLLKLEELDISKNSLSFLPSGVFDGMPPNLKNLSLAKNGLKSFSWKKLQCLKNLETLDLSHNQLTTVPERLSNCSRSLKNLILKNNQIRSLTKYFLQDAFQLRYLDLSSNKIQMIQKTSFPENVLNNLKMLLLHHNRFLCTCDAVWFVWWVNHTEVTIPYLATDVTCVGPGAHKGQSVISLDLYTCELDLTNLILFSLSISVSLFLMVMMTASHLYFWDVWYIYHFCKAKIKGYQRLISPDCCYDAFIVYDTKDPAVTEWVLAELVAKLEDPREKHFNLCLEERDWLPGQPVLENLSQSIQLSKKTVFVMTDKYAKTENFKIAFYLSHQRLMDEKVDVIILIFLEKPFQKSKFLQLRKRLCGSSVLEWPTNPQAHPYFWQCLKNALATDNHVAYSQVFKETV
The experiment is described as follows: TLR7 inhibition reporter assay (HEK-Blue cells, SEAP reporter). Conditions: HEK-Blue cells overexpressing human TLR7; stimulated with gardiquimod 7.5 μM; 22 hour incubation; SEAP readout. Here is the method: as §1, §2

For orientation: IC50 means the midpoint of a concentration-inhibition curve. A higher IC50 goes with weaker potency. For the compound `COc1ccc(-c2cn3cc(C4C[C@H]5CC[C@@H](C4)N5C4CCN(C5CC5)CC4)cc(C)c3n2)cc1OC` (mixture of isomers) [Example 24, 6-(8-(1-cyclopropylpiperidin-4-yl)-8-azabicyclo[3.2.1]octan-3-yl)-2-(3,4-dimethoxyphenyl)-8-methylimidazo[1,2-a]pyridine], the IC50 on human TLR9 was 0.102 µM; against human TLR8, > 50 µM; on human TLR7 it was 2.9 µM.
Turning to `COc1ccc(-c2cn3cc(C4C[C@H]5CC[C@@H](C4)N5C4CCN(CC(C)C)CC4)cc(C)c3n2)cc1OC` (mixture of isomers) [Example 27, 2-(3,4-dimethoxyphenyl)-6-(8-(1-isobutylpiperidin-4-yl)-8-azabicyclo[3.2.1]octan-3-yl)-8-methylimidazo[1,2-a]pyridine], the IC50 against human TLR9 is 0.017 µM; against human TLR8 it was > 50 µM; on human TLR7 it was 1.4 µM.
As to `COc1ccc(-c2cn3cc(C4C[C@H]5CC[C@@H](C4)N5C4CCN(C(C)C)CC4)cc(C)c3n2)cc1OC` (mixture of isomers) [Example 30, 2-(3,4-dimethoxyphenyl)-6-(8-(1-isopropylpiperidin-4-yl)-8-azabicyclo[3.2.1]octan-3-yl)-8-methylimidazo[1,2-a]pyridine], the IC50 against human TLR9 is 0.037 µM; against human TLR8, > 50 µM; on human TLR7, 1.4 µM.
Consider `COc1ccc(-c2cn3c(n2)CCC(C2CCN(C4CCN(CC(C)C)CC4)CC2)C3)cc1OC` (racemic) [Example 31, 2-(3,4-dimethoxyphenyl)-6-(1′-isobutyl-[1,4′-bipiperidin]-4-yl)-5,6,7,8-tetrahydroimidazo[1,2-a]pyridine], for which the IC50 was 0.026 µM against human TLR9, > 50 µM on human TLR8 and 4.6 µM at human TLR7.
Take `COc1ccc(-c2cn3c(n2)CCC(C2CCN(C4CCN(C(C)C)CC4)CC2)C3)cc1OC` (racemic) [Example 34, 2-(3,4-dimethoxyphenyl)-6-(1′-isopropyl-[1,4′-bipiperidin]-4-yl)-5,6,7,8-tetrahydroimidazo[1,2-a]pyridine]: the IC50 is 0.037 µM against human TLR9, > 50 µM against human TLR8 and 12 µM at human TLR7.
On to `COc1ccc(-c2cn3c(n2)CCC(C2CCN(C4CCN(C(=O)C(C)C)CC4)CC2)C3)cc1OC` (racemic) [Example 39, 1-(4-(2-(3,4-dimethoxyphenyl)-5,6,7,8-tetrahydroimidazo[1,2-a]pyridin-6-yl)-[1,4′-bipiperidin]-1′-yl)-2-methylpropan-1-one], for which the IC50 was 0.141 µM against human TLR9, > 50 µM at human TLR8 and 43 µM against human TLR7.
Consider `COc1ccc(-c2cn3c(n2)CCC(C2CCN(C4CCN(C(=O)C5CC5)CC4)CC2)C3)cc1OC` (racemic) [Example 42, cyclopropyl(4-(2-(3,4-dimethoxyphenyl)-5,6,7,8-tetrahydroimidazo[1,2-a]pyridin-6-yl)-[1,4′-bipiperidin]-1′-yl)methanone], for which the IC50 against human TLR9 was 0.08 µM; against human TLR8 it was > 50 µM; on human TLR7, 19 µM.
As for `COc1ccc(-c2cn3c(n2)CCC(C2CCN(C4CC5(C4)CN(C(C)C)C5)CC2)C3)cc1OC` (racemic) [Example 45, 2-(3,4-dimethoxyphenyl)-6-(1-(2-isopropyl-2-azaspiro[3.3]heptan-6-yl)piperidin-4-yl)-5,6,7,8-tetrahydroimidazo[1,2-a]pyridine], the IC50 was 0.09 µM against human TLR9, > 50 µM against human TLR8 and 2.1 µM on human TLR7.
In the same order, the values of `COc1ccc(-c2cn3c(n2)CCC(C2CCN(C4CC5(C4)CN(C4CCC4)C5)CC2)C3)cc1OC` (racemic) [Example 48, 6-(1-(2-cyclobutyl-2-azaspiro[3.3]heptan-6-yl)piperidin-4-yl)-2-(3,4-dimethoxyphenyl)-5,6,7,8-tetrahydroimidazo[1,2-a]pyridine] are 0.112 µM, > 50 µM and 2 µM.
Turning to `COc1ccc(-c2cn3c(n2)CCC(C2CCN(C4CC5(C4)CN(CC4CC4)C5)CC2)C3)cc1OC` (racemic) [Example 51, 6-(1-(2-(cyclopropylmethyl)-2-azaspiro[3.3]heptan-6-yl)piperidin-4-yl)-2-(3,4-dimethoxyphenyl)-5,6,7,8-tetrahydroimidazo[1,2-a]pyridine], the IC50 against human TLR9 is 0.068 µM; at human TLR8, > 50 µM; at human TLR7, > 50 µM.
